Experiments:
STAT1 [1] = assay: STAT1 phosphorylation; type: cell-based; conditions: FIG. 8
Experimental: siRNAs (100 nM) were transfected into INS-1E cells (5,000 cells/well in a 384-well plate) using DharmaFECT reagent. Transfected cells were cultured for 72 hr, then collected for Western blot analysis and cell-based assays. For Western blotting, cells were lysed in RIPA buffer. Total protein was separated by 4-12% SDS-PAGE and transferred to a PVDF membrane. Blots were developed using the chemiluminescence detection system SuperSignal (Thermo Fisher Scientific) and light emission was captured using an Imaging Station 4000MM (Carestream).

STAT1 [2] = assay: Nuclear STAT1 translocation; type: cell-based; conditions: FIG. 9
Usp9x [3] = target: T1, Usp9x (Homo sapiens, UniProt Q93008); assay: Usp9x thermal shift assay; type: binding; conditions: FIG. 14, purified Usp9x, compared with WP1130
T1 construct: made in house
Experimental: For each purification, fifty 25-cm dishes of confluent HEK-293 cell lines stably expressing wild-type USP-9X (provided by Dr. Dario Alessi, University of Dundee, Scotland) were employed. Cells were washed twice with ice-cold PBS and lysed in 1 ml of ice-cold lysis buffer. The combined lysates were centrifuged at 26000 g for 30 min at 4° C. and the supernatant incubated with 0.2 ml of rabbit IgG-agarose beads (Sigma) for 1 h at 4° C. The IgG-agarose was washed extensively with lysis buffer containing 0.15 M NaCl, then with several washes in buffer B prior to incubation with 0.250 ml of buffer B containing 0.1 mg of TEV protease (Invitrogen). After 3 h at 4° C.˜70-90% of the TAP-tagged protein had been cleaved from the IgG-agarose and the eluted protein was incubated with 0.1 ml of rabbit calmodulin-Sepharose (Roche) equilibrated in buffer C. After 1 h at 4° C., the calmodulin-Sepharose was washed with buffer C. To elute the protein, the calmodulin-Sepharose was then incubated with 0.1 ml of buffer D for 10 min at 4° C. The eluate was removed from the beads and the elution repeated two or three times. To remove the NaCl present in the buffer containing the eluate protein, the eluates were centrifuged at 1500 g for 1 min at 4° C. in protein desalting spin columns. […]

STAT1 [4] = assay: GAS reporter assay (cytokine-induced STAT1 reporter gene activity); type: cell-based; conditions: FIG. 7
Experimental: INS-1E cells were transfected with plasmids (GAS reporter assay kit) using DharmaFECT reagent according to the manufacturer's protocol (SABiosciences) in white optical 384-well plates (Corning Life Sciences). After overnight incubation, medium was removed and 50 μL RPMI containing the treated compound, 1% FBS and a combination of cytokines (10 ng/mL IL-1β, 50 ng/mL IFN-γ, 25 ng/mL TNF-α) was added to every well. After treatment with cytokines and compounds for 18 hr, luminescence was measure using Dual-Glo according to the manufacturer's protocol (Promega).

Usp9x [5] = assay: Low-throughput compound pull-down and Western blot; type: binding; conditions: FIG. 13, Western blot
dissociated human islets = assay: Cytokine-induced caspase-3/7 activity in dissociated human islets; type: cell-based; conditions: six-day cytokine treatment, co-incubation
Excerpt: Without being bound by any theory the following postulated to relate the activity of the compounds of Formula I in autoimmune diseases. Human beta-cell apoptosis involves a complex set of signaling cascades initiated by IL-1β, IFN-γ, and TNF-α. IL-1β and TNF-α induce NF-κB expression, while downstream activation of gene expression is thought to occur through nitric oxide (NO) signaling, which both increases the endoplasmic reticulum stress-response pathway and decreases beta-cell function; this pathway works together with IFN-γ-induced STAT-1 signaling to effect beta-cell death. These effects of cytokines are beta cell-specific, and small-molecule suppressors should have little to no effect on other cell types in the pancreas. Small molecules that increase beta-cell survival in the presence of cytokines could be of potential clinical benefit to early-stage type 1 diabetic patients. A number of studies have described small molecules with protective effects in the presence of cytokines; most of these were discovered because of their nonspecific antioxidant or anti-inflammatory effects. […] Because of the use of dissociated islets and a whole-well readout of caspase activity, it cannot be certain that only beta cells are undergoing apoptosis; however, based on previous results in the literature, beta cells may constitute the majority of the apoptotic effect.

INS-1E cells = assay: Glucose-stimulated insulin secretion in cytokine-treated INS-1E cells; type: cell-based, rat; conditions: cytokines
Experimental: INS-1E cells were seeded in 96-well plates at 20,000 cells per well and incubated for 48 h in 100 μL of fresh RPMI containing 1% FBS and the cytokine cocktail, in the presence or absence of compounds. Cells were washed and incubated for 2 h in KRBH (135 mM NaCl, 3.6 mM KCl, 5 mM NaHCO3, 0.5 mM NaH2PO4, 0.5 mM MgCl2, 1.5 mM CaCl2, 10 mM HEPES, pH 7.4, 0.1% BSA) without glucose. Cells were subsequently incubated with KRBH containing 2 or 15 mM glucose for 1 h. The supernatant was taken for measurement of released insulin, and 100 μL of acidified ethanol was added to each well for extraction and measurement of cellular insulin content. Insulin was measured with a rat insulin ELISA kit (Alpco).

T1 sequence (Q93008 whole entry): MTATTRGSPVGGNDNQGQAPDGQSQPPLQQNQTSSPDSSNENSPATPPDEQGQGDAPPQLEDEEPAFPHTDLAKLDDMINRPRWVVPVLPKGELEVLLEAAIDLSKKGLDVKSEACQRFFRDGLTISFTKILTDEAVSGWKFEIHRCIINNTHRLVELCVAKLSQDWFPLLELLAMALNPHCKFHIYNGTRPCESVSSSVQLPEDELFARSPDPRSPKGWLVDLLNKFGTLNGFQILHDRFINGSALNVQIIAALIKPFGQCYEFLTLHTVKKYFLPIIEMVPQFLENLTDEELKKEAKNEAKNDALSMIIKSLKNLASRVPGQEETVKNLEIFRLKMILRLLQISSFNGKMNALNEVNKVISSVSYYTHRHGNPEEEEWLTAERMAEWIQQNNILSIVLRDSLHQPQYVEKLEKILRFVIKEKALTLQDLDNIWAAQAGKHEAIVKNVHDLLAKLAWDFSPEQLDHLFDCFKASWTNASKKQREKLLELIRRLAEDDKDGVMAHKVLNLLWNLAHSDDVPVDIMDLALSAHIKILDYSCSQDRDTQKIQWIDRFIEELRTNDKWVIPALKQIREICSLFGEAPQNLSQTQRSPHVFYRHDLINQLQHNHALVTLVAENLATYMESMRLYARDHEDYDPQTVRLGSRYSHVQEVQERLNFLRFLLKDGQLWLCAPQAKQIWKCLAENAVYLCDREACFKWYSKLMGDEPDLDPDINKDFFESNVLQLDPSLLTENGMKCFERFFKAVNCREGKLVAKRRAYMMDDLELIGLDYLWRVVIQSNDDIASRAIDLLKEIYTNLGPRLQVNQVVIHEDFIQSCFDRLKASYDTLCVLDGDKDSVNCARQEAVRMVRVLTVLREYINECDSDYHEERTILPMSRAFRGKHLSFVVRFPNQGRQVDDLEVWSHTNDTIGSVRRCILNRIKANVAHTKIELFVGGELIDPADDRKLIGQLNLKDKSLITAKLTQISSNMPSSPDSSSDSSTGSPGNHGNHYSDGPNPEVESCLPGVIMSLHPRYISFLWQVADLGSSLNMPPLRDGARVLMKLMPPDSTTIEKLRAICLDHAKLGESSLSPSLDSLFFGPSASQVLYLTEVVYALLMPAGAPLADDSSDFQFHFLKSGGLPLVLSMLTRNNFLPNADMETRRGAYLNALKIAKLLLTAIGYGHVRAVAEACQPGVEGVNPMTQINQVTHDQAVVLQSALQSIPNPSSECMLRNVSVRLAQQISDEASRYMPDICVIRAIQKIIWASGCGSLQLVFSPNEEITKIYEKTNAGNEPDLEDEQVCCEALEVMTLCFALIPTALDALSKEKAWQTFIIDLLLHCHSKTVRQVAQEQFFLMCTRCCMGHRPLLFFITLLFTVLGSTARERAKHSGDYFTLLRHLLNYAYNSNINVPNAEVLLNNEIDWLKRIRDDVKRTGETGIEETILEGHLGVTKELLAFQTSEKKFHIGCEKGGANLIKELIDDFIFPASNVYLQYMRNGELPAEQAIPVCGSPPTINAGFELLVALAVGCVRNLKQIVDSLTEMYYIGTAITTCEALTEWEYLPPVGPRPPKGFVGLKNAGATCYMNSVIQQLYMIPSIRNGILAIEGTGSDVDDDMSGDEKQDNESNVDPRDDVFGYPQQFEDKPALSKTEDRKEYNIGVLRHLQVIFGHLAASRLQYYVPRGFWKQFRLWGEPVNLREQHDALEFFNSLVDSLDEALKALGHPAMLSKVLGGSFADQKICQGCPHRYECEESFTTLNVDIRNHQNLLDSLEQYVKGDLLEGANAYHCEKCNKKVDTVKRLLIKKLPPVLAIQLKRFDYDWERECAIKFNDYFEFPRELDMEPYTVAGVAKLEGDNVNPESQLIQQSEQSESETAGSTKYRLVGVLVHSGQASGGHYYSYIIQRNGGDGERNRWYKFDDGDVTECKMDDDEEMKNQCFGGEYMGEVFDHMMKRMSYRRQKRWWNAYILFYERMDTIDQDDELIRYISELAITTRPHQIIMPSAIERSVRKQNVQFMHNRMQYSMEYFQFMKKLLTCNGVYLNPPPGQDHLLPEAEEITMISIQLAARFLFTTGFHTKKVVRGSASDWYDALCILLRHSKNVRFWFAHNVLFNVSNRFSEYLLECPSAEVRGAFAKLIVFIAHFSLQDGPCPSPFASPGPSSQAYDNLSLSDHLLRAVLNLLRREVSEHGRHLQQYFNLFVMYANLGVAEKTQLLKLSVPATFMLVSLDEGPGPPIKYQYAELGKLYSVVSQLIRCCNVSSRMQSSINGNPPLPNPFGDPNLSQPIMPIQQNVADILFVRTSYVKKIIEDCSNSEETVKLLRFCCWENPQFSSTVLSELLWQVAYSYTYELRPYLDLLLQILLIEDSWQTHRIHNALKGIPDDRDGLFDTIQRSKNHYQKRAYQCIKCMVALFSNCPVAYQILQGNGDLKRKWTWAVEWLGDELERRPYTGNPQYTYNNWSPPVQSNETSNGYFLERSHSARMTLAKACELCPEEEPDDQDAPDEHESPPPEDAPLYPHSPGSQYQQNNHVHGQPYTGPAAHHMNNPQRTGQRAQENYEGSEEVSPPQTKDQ

C[C@@H]1CN([C@@H](C)CO)C(=O)c2cccc(NC(=O)Nc3cccc4ccccc34)c2O[C@H]1CN(C)S(=O)(=O)c1ccc2c(c1)OCCO2 [Compound 21A, N-(((2R,3R)-5-((S)-1-Hydroxypropan-2-yl)-3-methyl-10-(3-(naphthalen-1-yl)ureido)-6-oxo-3,4,5,6-tetrahydro-2H-benzo[b][1,5]oxazocin-2-yl)methyl)-N-methyl-2,3-dihydrobenzo-[b][1,4]dioxine-6-sulfonamide]
STAT1 phosphorylation (STAT1 [1]): Suppression of STAT1 phosphorylation
nuclear STAT1 translocation (STAT1 [2]): Inhibition of nuclear STAT1 translocation
Usp9x thermal shift (Usp9x [3]): suggests binding
cytokine-induced STAT1 reporter gene activity (STAT1 [4]): inhibits cytokine-induced STAT1 reporter gene activity
protein isolated by compound pull-down (Usp9x [5]): Usp9x isolated
cytokine-induced caspase-3/7 activity (induced by approximately 60%) (dissociated human islets): abolished
glucose-stimulated insulin secretion (GSIS) (INS-1E cells): restored glucose-stimulated insulin secretion (GSIS), showing improved beta-cell function, to nearly normal levels
